The values below come from ChEMBL document CHEMBL1201862, “PubChem BioAssay data set” (2004).

The structures appear in SMILES notation.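 1) Cells in 96-well plates. 2) Compound, 48 h, 5 concentrations. 3) Linear interpolation between surrounding doses. 4) Unreached endpoint = highest concentration. At the GI50, growth is halved.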 Activity calls are given as the source filed them. Rule as the data show it: active = GI50 up to about 1.1 µM and inactive = higher.

Common to all, as to test: NCI tumour cell line growth inhibition, 48 h
Experiment [1] deals with SN12C.
Experiment [2] concerns TK-10.
Experiment [3] has as its system U-251.
The subject of experiment [4] is MDA-MB-231.
In experiment [5] the test system is DU-145.
For experiment [6], the system named is NCI-H522.
The test system of experiment [7] is MOLT-4.
Experiment [8] deals with OVCAR-5.
In experiment [9] the test system is T47D.
Experiment [10] relates to MCF7.
In experiment [11] the test system is SR.
Experiment [12] relates to 786-0.
Experiment [13] has as its system BT-549.
For experiment [14], the system named is SK-MEL-2.
The test system of experiment [15] is EKVX.
For experiment [16], the system named is HOP-92.
Experiment [17] deals with KM12.
Experiment [18] concerns SK-OV-3.
Experiment [19] deals with NCI/ADR-RES.
In experiment [20] the test system is Hs-578T.

In the case of `CCc1ccccc1/N=N/C(=O)NNc1ccccc1CC`, the GI50 is 18.5 µM (inactive) in [1]; 22.1 µM (inactive) in [2]; 16.1 µM (inactive) in experiment [3]; 21.3 µM (inactive) in [4]; 14.9 µM (inactive) in experiment [5]; 19.7 µM (inactive) in experiment [6]. Also, the GI50 was 19.4 µM (inactive) in experiment [7]; 14.9 µM (inactive) in experiment [8]; 6.78 µM (inactive) in [9]; 19.2 µM (inactive) in experiment [10]; 23.2 µM (inactive) in [11]; 17.6 µM (inactive) in experiment [12]. For the same compound, the GI50 in experiment [13] is 18.4 µM (inactive); in [14], 17.5 µM (inactive).

With `COc1cc2nc(-c3cccs3)nc(N3CCN(c4ccccc4)CC3)c2cc1OC`, the GI50 in experiment [15], in experiment [1], in [2], in [3], in experiment [4] and in experiment [5] was > 100 µM (inactive) in each case. Also, the GI50 in [6], in [16], in experiment [17], in [8], in [18] and in experiment [9] was > 100 µM (inactive) throughout. The GI50 in [19], in experiment [20], in experiment [10], in [11], in experiment [12] and in experiment [13] was > 100 µM (inactive) throughout. Moreover, in experiment [14], the GI50 was > 100 µM (inactive).

For `NN`, the GI50 was 883 µM (inactive) in experiment [15]; 403 µM (inactive) in experiment [1]; 893 µM (inactive) in [2]; 410 µM (inactive) in experiment [3]; 423 µM (inactive) in experiment [4]; 793 µM (inactive) in experiment [5]. Besides, the GI50 in experiment [6] was 335 µM (inactive); in experiment [7], 193 µM (inactive); in [16], 525 µM (inactive); in experiment [17], 480 µM (inactive); in [8], 514 µM (inactive); in [18] it was 1240 µM (inactive). The GI50 is 618 µM (inactive) in experiment [9]; 740 µM (inactive) in experiment [19]; 809 µM (inactive) in experiment [20]; 179 µM (inactive) in experiment [10]; 100 µM (inactive) in experiment [11]; 204 µM (inactive) in experiment [12]. The GI50 in experiment [13] is 1080 µM (inactive); in experiment [14] it was 607 µM (inactive).

As for `c1ccc2sc(SCN(C3CCCCC3)C3CCCCC3)nc2c1`, the GI50 in [15], in experiment [2], in experiment [3], in experiment [4], in experiment [5] and in experiment [6] was > 100 µM (inactive) throughout. The GI50 is > 100 µM (inactive) in [7]; > 100 µM (inactive) in [16]; > 100 µM (inactive) in experiment [17]; > 100 µM (inactive) in [8]; 15.1 µM (inactive) in experiment [9]; > 100 µM (inactive) in experiment [19]. Moreover, the GI50 in [20], in experiment [11], in [13] and in experiment [14] was > 100 µM (inactive) each time.

As for `CC(C)=CC1C(C(=O)O)C1(C)C` (stereo not drawn) [CHRYSANTHEMIC ACID], the GI50 in experiment [15] is > 750 µM (inactive); in [1] it was > 724 µM (inactive); in [3], > 750 µM (inactive); in experiment [6] it was > 750 µM (inactive); in experiment [7], > 750 µM (inactive); in experiment [16], 520 µM (inactive). Further, the GI50 in experiment [17], in experiment [8], in experiment [18], in experiment [19], in experiment [10] and in experiment [14] was > 750 µM (inactive) in each case.

For `O=C(O)c1ccccc1.[Ag]`, the GI50 in [15] was 26.6 µM (inactive); in experiment [1] it was 23 µM (inactive); in [2], 7.11 µM (inactive); in [3], 18.5 µM (inactive); in experiment [5] it was 17.5 µM (inactive); in [6], 1.5 µM (inactive). The GI50 in [7] is 2.55 µM (inactive); in experiment [16], 21.7 µM (inactive); in experiment [17], 19.5 µM (inactive); in [8], 22.9 µM (inactive); in experiment [18], 17.4 µM (inactive); in experiment [9], 2.46 µM (inactive). Besides, the GI50 in experiment [19] is 34.6 µM (inactive); in [20], 28.2 µM (inactive); in experiment [10] it was 13.3 µM (inactive); in [11], 5.12 µM (inactive); in experiment [12], 17.3 µM (inactive); in experiment [13], 27.2 µM (inactive). Besides, the GI50 in experiment [14] is 14.4 µM (inactive).

As to `CCOC(=O)Cn1c(=O)ccn(COCCO)c1=O`, the GI50 in [15], in [1], in experiment [2], in experiment [3], in [4] and in experiment [5] was > 100 µM (inactive) each time. For the same compound, the GI50 in experiment [6], in experiment [7], in experiment [16], in experiment [17], in experiment [8] and in [9] was > 100 µM (inactive) in each case. In addition, the GI50 in experiment [19] is > 100 µM (inactive); in experiment [20], > 100 µM (inactive); in [10], > 100 µM (inactive); in experiment [11], > 10 µM (inactive); in experiment [13] it was > 100 µM (inactive); in experiment [14] it was > 100 µM (inactive).

For `Brc1ccc2[nH]c3c(C4=NCCC4)nccc3c2c1`, the GI50 is 13 µM (inactive) in experiment [15]; 19.1 µM (inactive) in experiment [1]; 12.5 µM (inactive) in [3]; 9.12 µM (inactive) in [6]; 8.45 µM (inactive) in experiment [7]; > 26.9 µM (inactive) in experiment [16]. The GI50 in experiment [17] is 41.5 µM (inactive); in [8], 6.11 µM (inactive); in [18], 26.7 µM (inactive); in [19], 40 µM (inactive); in experiment [10], 9.25 µM (inactive); in experiment [14], 13.9 µM (inactive).

With `O=[N+]([O-])c1ccc(-c2ccc([C@H]3CC(c4cc(F)c(Cl)cc4Cl)=NN3)o2)cc1`, the GI50 in experiment [15] is > 100 µM (inactive); in experiment [1] it was 24.3 µM (inactive); in [2], 31.8 µM (inactive); in experiment [5], 26.9 µM (inactive); in experiment [6], 16.6 µM (inactive); in [7], 1.95 µM (inactive). The GI50 was 26.6 µM (inactive) in [16]; 0.625 µM (active) in [17]; > 100 µM (inactive) in experiment [8]; 39.2 µM (inactive) in experiment [18]; 5.48 µM (inactive) in experiment [9]; 21.6 µM (inactive) in experiment [19]. Moreover, the GI50 was > 100 µM (inactive) in experiment [20]; 16.7 µM (inactive) in experiment [10]; 0.621 µM (active) in experiment [11]; 23.7 µM (inactive) in [12]; 25.4 µM (inactive) in experiment [13].

With `CO/N=C1\CC(NC(=O)C(F)(F)F)c2ccsc21` (stereo not drawn), the GI50 in experiment [15], in experiment [1], in experiment [2], in experiment [3], in experiment [4] and in experiment [5] was > 100 µM (inactive) throughout. The GI50 in experiment [7], in experiment [16], in [8], in experiment [18], in experiment [9] and in experiment [19] was > 100 µM (inactive) throughout. Also, the GI50 in experiment [20], in experiment [10], in [11], in [13] and in experiment [14] was > 100 µM (inactive) in each case.

With `CNC(=O)OCc1c(CO)nc(SC)n1C`, the GI50 in [15], in experiment [1], in experiment [3], in [6], in [7] and in experiment [16] was > 100 µM (inactive) throughout. Moreover, the GI50 in [17], in experiment [8], in experiment [18], in [19], in experiment [10] and in [14] was > 100 µM (inactive) each time.

`O=[N+]([O-])c1ccc(NC2OCC(O)C(O)C2O)cc1` (stereo not drawn): the GI50 in experiment [15], in experiment [1], in experiment [2], in experiment [3], in [6] and in experiment [7] was > 100 µM (inactive) throughout. For the same compound, the GI50 in [16], in [17], in experiment [18], in experiment [11], in experiment [12] and in experiment [14] was > 100 µM (inactive) throughout.
